According to patent EP2272817A1, “PAI-1 INHIBITOR” (Institute of Medicinal Molecular Design, Inc., priority 2008, dated 2009):
Where two headings read alike, the source gives them in different places.

Columns and labels:
recombinant human PAI-1 [1] = biological target: T1, recombinant human PAI-1 (Homo sapiens, UniProt P05121); experiment: biochemical
recombinant human PAI-1 [2] = biological target: T1, recombinant human PAI-1; experiment: Test Example 2: Human PAI-1 Inhibitory Activity (pH 7.4 HEPES buffer, 10 minutes incubation with two-chain tPA); assay type: biochemical; set-up: purchased Molecular Innovations, Inc; details: read-out: Inhibition Rate of PAI-1 Activity (%)
Protocol: 0.1 M HEPES, 0.1 M NaCl. 1 mM EDTA. 0.1 % Polyethylene glycol 8,000 (Hampton Research Corporation),
2 mM Dimethyldecylphoshine oxide [Apo-10] (Fluka Corporation)

[3] = read-out: Inhibition Rate of PAI-1 Activity (%)
[4] = read-out: Inhibition Rate of PAI Activity (%)

T1 sequence (P05121 24-402): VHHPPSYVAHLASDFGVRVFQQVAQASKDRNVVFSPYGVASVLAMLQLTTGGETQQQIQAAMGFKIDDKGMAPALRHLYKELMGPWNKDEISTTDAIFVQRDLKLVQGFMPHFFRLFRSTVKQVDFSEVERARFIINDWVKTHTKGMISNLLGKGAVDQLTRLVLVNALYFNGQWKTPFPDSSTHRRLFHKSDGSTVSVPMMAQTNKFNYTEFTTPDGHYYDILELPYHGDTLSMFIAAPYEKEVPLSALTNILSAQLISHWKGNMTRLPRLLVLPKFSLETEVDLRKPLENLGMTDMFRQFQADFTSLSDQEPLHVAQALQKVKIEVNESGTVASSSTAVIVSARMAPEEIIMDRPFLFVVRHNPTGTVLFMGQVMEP

SMILES	inhibition at 5 µM (recombinant human PAI-1 [1]; [3]) [%]	inhibition at 10 µM (recombinant human PAI-1 [1]; [3]) [%]	inhibition at 25 µM (recombinant human PAI-1 [1]; [3]) [%]	further results
CC(C)(Oc1c(Oc2ccc(C(C)(C)C)cc2)cccc1-c1ccc(OC(F)(F)F)cc1)C(=O)O [Compound 251]	–	–	–	inhibition at 5 µM (recombinant human PAI-1 [1]; read-out: Inhibition Rate of PAI-1 Activity (%), Compound Concentration 5µM): 62%; inhibition at 10 µM (recombinant human PAI-1 [1]; read-out: Inhibition Rate of PAI-1 Activity (%), Compound Concentration 10µM): 63%; inhibition at 0.1 µM (recombinant human PAI-1 [2]): 0%; inhibition at 0.3 µM (recombinant human PAI-1 [2]): 11%; inhibition at 1 µM (recombinant human PAI-1 [2]): 34%; inhibition at 3 µM (recombinant human PAI-1 [2]): 83%
CN(c1ccc(OC(F)(F)F)cc1)c1ccc(OCc2ccc(C(C)(C)C)cc2)c(CCC(=O)O)c1 [Compound 417]	44	79	98	–
CC(C)c1ccc(Oc2ccc(/C=C\C(=O)O)c(Oc3ccc(C(C)C)cc3)c2)cc1 [Compound 74]	13	53	96	–
COc1cc(-c2ccc(OC(F)(F)F)cc2)cc(CCC(=O)O)c1OCc1ccc(C(C)(C)C)cc1 [Compound 82]	26	59	98	–
CC(C)(OCc1ccc(-c2ccc(OC(F)(F)F)cc2)cc1Oc1ccc(C(C)(C)C)cc1)C(=O)O [Compound 111]	55	88	94	–
CC(C)(C)c1ccc(COc2cc(-c3ccc(OC(F)(F)F)cc3)ccc2/C=C/C(=O)O)cc1 [Compound 75]	25	53	91	–
CCC(CC)Oc1ccc(N(Cc2ccc(C(C)(C)C)cc2)C(=O)C(=O)O)c(-c2ccc(OC(F)(F)F)cc2)c1 [Compound 207]	79	90	–	–
Cc1cc(-c2ccc(OC(F)(F)F)cc2)ccc1N(Cc1ccc(C(C)(C)C)cc1)C(=O)C(=O)O [Compound 146]	33	73	90	–
CC(C)(C)c1ccc(N(C(=O)C(=O)O)c2cccc(Oc3ccc(OC(F)(F)F)cc3)c2)cc1 [Compound 170]	38	73	94	–
O=C(O)/C=C/c1c(Oc2ccc(OC(F)(F)F)cc2)cccc1Oc1ccc(OC(F)(F)F)cc1 [Compound 97]	30	40	53	–
CC(C)(C)c1ccc(CN(C(=O)C(=O)O)c2ccc(OCc3ccc(OC(F)(F)F)cc3)cc2)cc1 [Compound 616]	49	83	96	–
O=C(O)CCc1cc(-c2ccc(OC(F)(F)F)cc2)ccc1Oc1ccc(OC(F)(F)F)cc1 [Compound 16]	–	–	–	inhibition at 5 µM (recombinant human PAI-1 [1]; [4]): 23%; inhibition at 10 µM (recombinant human PAI-1 [1]; [4]): 46%; inhibition at 25 µM (recombinant human PAI-1 [1]; [4]): 96%
CC(C)(C)c1ccc(COc2ccc(OCc3ccc(OC(F)(F)F)cc3)cc2/C=C/C(=O)O)cc1 [Compound 413]	38	66	84	–
CC(C)(C)c1ccc(CN(C(=O)C(=O)O)c2c(Cl)cc(-c3ccc(OC(F)(F)F)cc3)cc2Cl)cc1 [Compound 173]	63	95	90	–
CC(C)(C)c1ccc(CN(C(=O)C(=O)O)c2cc(Oc3ccc(OC(F)(F)F)cc3)cc(C(F)(F)F)c2)cc1 [Compound 175]	66	94	87	–
CC(C)c1ccc(Oc2ccc(/C=C/C(=O)O)c(Oc3ccc(C(C)C)cc3)c2)cc1 [Compound 72]	32	72	98	–

SMILES	inhibition at 5 µM (recombinant human PAI-1 [1]; [3]) [%]	inhibition at 10 µM (recombinant human PAI-1 [1]; [3]) [%]	inhibition at 25 µM (recombinant human PAI-1 [1]; [3]) [%]	further results
CC(C)(C)c1ccc(COc2c(Cl)cc(-c3ccc(OC(F)(F)F)cc3)cc2CCC(=O)O)cc1 [Compound 92]	25	63	97	–
Cc1ccc(CN(C(=O)C(=O)O)c2ccc(-c3ccc(OC(F)(F)F)cc3)cc2)cc1 [Compound 143]	–	1	22	–
CC(C)(C)c1ccc(COc2ccc(OCc3ccc(OC(F)(F)F)cc3)cc2CCC(=O)O)cc1 [Compound 414]	33	67	96	–
CC(C)(C)c1ccc(CN(C(=O)C(=O)O)c2ccc(-c3ccc(C(C)(C)C)cc3)cc2)cc1 [Compound 163]	37	84	> 99	–
CC(C)(C)c1ccc(-c2ccc(Oc3ccc(-c4ccc(OC(F)(F)F)cc4)cc3/C=C/C(=O)O)c(CCC(=O)O)c2)cc1 [Compound 540]	75	91	91	–
CC(C)(C)c1ccc(COc2ccc(-c3ccc(OC(F)(F)F)cc3)cc2OCc2nn[nH]n2)cc1 [Compound 122]	29	63	99	–
CC(C)(C)c1ccc(CN(C(=O)C(=O)O)c2ccc(-c3ccc(F)cc3)cc2)cc1 [Compound 127]	21	43	–	–
CC(C)(C)c1ccc(COc2cc(/C=C/C(=O)O)cc(Oc3ccc(OC(F)(F)F)cc3)c2)cc1 [Compound 409]	26	59	97	–
CC(C)Oc1ccc(N(Cc2ccc(C(C)(C)C)cc2)C(=O)C(=O)O)c(-c2ccc(OC(F)(F)F)cc2)c1 [Compound 209]	81	98	94	–
CC(C)(C)c1ccc(CN(C(=O)C(=O)O)c2ccc(Nc3ccc(OC(F)(F)F)cc3)cc2)cc1 [Compound 626]	42	77	97	–
COc1ccc(-c2ccc(N(Cc3ccc(C(C)(C)C)cc3)C(=O)C(=O)O)cc2)cc1 [Compound 126]	16	43	–	–
Cc1cc(-c2ccc(OC(F)(F)F)cc2)cc(C)c1N(Cc1ccc(C(C)(C)C)cc1)C(=O)C(=O)O [Compound 152]	41	88	93	–
Cc1ccc(-c2ccccc2)cc1N(Cc1ccc(C(C)(C)C)cc1)C(=O)C(=O)O [Compound 137]	–	5	61	–
CC(C)(C)c1ccc(CN(C(=O)C(=O)O)c2ccc(-c3cccc(OC(F)(F)F)c3)cc2)cc1 [Compound 200]	64	89	92	–
COc1cc(-c2ccc(OC(F)(F)F)cc2)cc(/C=C/C(=O)O)c1OCc1ccc(C(C)(C)C)cc1 [Compound 81]	28	63	70	–
O=C(O)CCc1cc(-c2ccc(OC(F)(F)F)cc2)ccc1OCCCOc1ccccc1 [Compound 103]	33	57	89	–

More lines, main results first:

inhibition at 5 µM (recombinant human PAI-1 [1]; [3]) [%]	inhibition at 10 µM (recombinant human PAI-1 [1]; [3]) [%]	inhibition at 25 µM (recombinant human PAI-1 [1]; [3]) [%]	SMILES	further results
26	61	> 99	CC(C)(C)c1ccc(N(C(=O)C(=O)O)c2cccc(-c3ccc(OC(F)(F)F)cc3)c2)cc1 [Compound 158]	–
27	62	–	Cc1cc(C)cc(CN(C(=O)C(=O)O)c2ccc(-c3ccc(OC(F)(F)F)cc3)cc2)c1 [Compound 123]	–
–	11	29	O=C(O)C(=O)N(Cc1ccc(OC(F)(F)F)cc1)c1ccc(-c2ccccc2)cc1 [Compound 183]	–
43	83	91	Cc1c(-c2ccc(OC(F)(F)F)cc2)cccc1N(Cc1ccc(C(C)(C)C)cc1)C(=O)C(=O)O [Compound 177]	–
2	8	23	CC(C)(C)CN(C(=O)C(=O)O)c1ccc(-c2ccc(OC(F)(F)F)cc2)cc1 [Compound 255]	–
79	96	–	Cc1cc(N(C)C)c(-c2ccc(OC(F)(F)F)cc2)cc1N(CCCCc1ccccc1)C(=O)C(=O)O [Compound 246]	–
45	71	95	O=C(O)C(=O)N(CCCCCc1ccccc1)c1ccc(-c2ccc(OC(F)(F)F)cc2)cc1 [Compound 228]	–
13	27	–	O=C(O)C(=O)N(CCc1ccccc1)c1ccc(-c2ccc(OC(F)(F)F)cc2)cc1 [Compound 223]	–
62	92	88	CC(C)(C)c1ccc(CN(C(=O)C(=O)O)c2ccc(Cl)c(OCc3ccc(OC(F)(F)F)cc3)c2)cc1 [Compound 629]	–
68	89	–	CC(C)(C)Oc1ccc(N(CCCCc2ccccc2)C(=O)C(=O)O)cc1-c1ccc(OC(F)(F)F)cc1 [Compound 249]	–
18	35	64	CC(C)(C)c1ccc(CN(C(=O)C(=O)O)c2ccc(-c3ccc(OC(F)(F)F)cc3)c(CCC(=O)O)c2)cc1 [Compound 196]	–
59	92	91	Cc1ccc(N(Cc2ccc(C(C)(C)C)cc2)C(=O)C(=O)O)cc1OCc1ccc(OC(F)(F)F)cc1 [Compound 625]	–
61	86	95	CCCOc1ccc(-c2ccc(OC(F)(F)F)cc2)cc1N(CCCCc1ccccc1)C(=O)C(=O)O [Compound 236]	–
42	64	89	O=C(O)C(=O)N(CCCCc1ccccc1)c1ccc(N2CCOCC2)c(-c2ccc(OC(F)(F)F)cc2)c1 [Compound 243]	–
75	92	–	CCC(CC)Oc1ccc(N(CCCc2ccccc2)C(=O)C(=O)O)c(-c2ccc(OC(F)(F)F)cc2)c1 [Compound 237]	–
